Reference: US20240190849A1, “AMINOPYRIMIDINE COMPOUNDS AND METHODS OF THEIR USE” (TYRA BIOSCIENCES, INC., priority 2021, published 2024)

Key:
FGFR3 (V555M) = molecular target: T1, FGFR3 (V555M) (Homo sapiens, UniProt P22607, V555M); assay: Kinase binding assay (kinase-tagged T7 phage, affinity beads, qPCR readout), FGFR3 (V555M); conditions: FGFR binding data
T1 construct: made in house; host or cells: E. coli derived from BL21, infected with T7 phage
In short: (§1)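 Kd values derive from Hill-equation fits (slope −1, Levenberg-Marquardt) of qPCR-quantified kinase recovered from ligand-coated beads. Compounds ran as 11-point 3-fold series, final DMSO 0.9%, with 1 hour room-temperature binding.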

[1] = test system: RT112/84 (Bladder Cancer), FGFR3-TACC3 fusion; assay: Cancer cell viability assay (Cell Titer-Glo), RT112/84; assay type: cell-based; conditions: Homo sapiens, RT112/84 cells, 72 hours
From the text: (§2) RT112/84, UM-UC-14, SNU-16 and KG-1 Cancer Cell Line Cell Viability Assays
(§3) To detect the change of intracellular ATP by Cell Titer-Glo@ and to evaluate the inhibitory effect of the compounds on cancer cell lines by determining the in vitro IC50 value of the compounds.
(§4) Cell Titer-Glo@ 2.0 Luminescent cell viability assay reagent was purchased from Promega (Madison, WI). RT112/84, SNU-16, and KG-1 cell lines were purchased from American Type Culture Collection (Manassas, VA). UM-UC-14 cell line was purchased from Sigma (St. Louis, MO). RT112/84, UM-UC-14, SNU-16, and KG-1 cells were cultured in RPMI1640 media supplemented with 10% fetal bovine serum. Cultures were maintained at 37° C. in a humidified atmosphere of 5% CO2 and 95% air.
(§5) Cell Viability Assay Procedure: Cells were plated in 96-well clear bottom/white plates (Corning #3903) at 10,000 cells/well in 100 μl of media, incubated overnight. The next day, test compound DMSO stock solutions were made at 10 mM and 2 μM final concentration. Compounds were then added to cells in a 9-dose, […] dilution series starting at 30 μM with an HP 300e Digital Dispenser (each dose was applied in triplicate). DMSO was backfilled to each well up to 301 nL total volume of test compound+DMSO, and a total of 301 nL DMSO was added to a control/no test compound well in triplicate. The cells in cell culture plates were incubated with the compounds at 37° C. and 5% CO2 for 72 hours. Then 50 μl of Cell Titer Glo 2.0 reagent was added to each well of the cell culture plates. The contents were covered from light and mixed on an orbital shaker at room temperature for 10 min. Luminescence was recorded by a Synergy H1 Microplate Reader (Biotek, Winooski, VT). Cells were assessed as a percentage of DMSO only treated control cells. Curves were plotted and IC50 values were calculated using the GraphPad Prism 8 program based on a sigmoidal dose-response equation (4 parameter).

FGFR1 = molecular target: T2, FGFR1 (Homo sapiens, UniProt P11362); assay: Kinase binding assay (kinase-tagged T7 phage, affinity beads, qPCR readout), FGFR1; conditions: FGFR binding data
T2 construct: made in house; host or cells: E. coli derived from BL21, infected with T7 phage
In short: as §1

FGFR2 = molecular target: T3, FGFR2 (Homo sapiens, UniProt P21802); assay: Kinase binding assay (kinase-tagged T7 phage, affinity beads, qPCR readout), FGFR2; conditions: FGFR binding data
T3 construct: made in house; host or cells: E. coli derived from BL21, infected with T7 phage
In short: as §1

FGFR3 = molecular target: T4, FGFR3 (Homo sapiens, UniProt P22607); assay: Kinase binding assay (kinase-tagged T7 phage, affinity beads, qPCR readout), FGFR3; conditions: FGFR binding data
T4 construct: made in house; host or cells: E. coli derived from BL21, infected with T7 phage
In short: as §1

[2] = test system: SNU-16 (Gastric Carcinoma), FGFR2 amplification; assay: Cancer cell viability assay (Cell Titer-Glo), SNU-16; assay type: cell-based; conditions: Homo sapiens, SNU-16 cells, 72 hours, read-out: SNU16 FGFR2 (IC50 nM)
From the text: as §2, §3, §4, §5

[3] = test system: UM-UC-14 (Bladder Cancer), FGFR3(S249C); assay: Cancer cell viability assay (Cell Titer-Glo), UM-UC-14; assay type: cell-based; conditions: UMUC14, UM-UC-14 cells, 72 hours
From the text: as §2, §3, §4, §5

T1 sequence (P22607 23-806 V555M): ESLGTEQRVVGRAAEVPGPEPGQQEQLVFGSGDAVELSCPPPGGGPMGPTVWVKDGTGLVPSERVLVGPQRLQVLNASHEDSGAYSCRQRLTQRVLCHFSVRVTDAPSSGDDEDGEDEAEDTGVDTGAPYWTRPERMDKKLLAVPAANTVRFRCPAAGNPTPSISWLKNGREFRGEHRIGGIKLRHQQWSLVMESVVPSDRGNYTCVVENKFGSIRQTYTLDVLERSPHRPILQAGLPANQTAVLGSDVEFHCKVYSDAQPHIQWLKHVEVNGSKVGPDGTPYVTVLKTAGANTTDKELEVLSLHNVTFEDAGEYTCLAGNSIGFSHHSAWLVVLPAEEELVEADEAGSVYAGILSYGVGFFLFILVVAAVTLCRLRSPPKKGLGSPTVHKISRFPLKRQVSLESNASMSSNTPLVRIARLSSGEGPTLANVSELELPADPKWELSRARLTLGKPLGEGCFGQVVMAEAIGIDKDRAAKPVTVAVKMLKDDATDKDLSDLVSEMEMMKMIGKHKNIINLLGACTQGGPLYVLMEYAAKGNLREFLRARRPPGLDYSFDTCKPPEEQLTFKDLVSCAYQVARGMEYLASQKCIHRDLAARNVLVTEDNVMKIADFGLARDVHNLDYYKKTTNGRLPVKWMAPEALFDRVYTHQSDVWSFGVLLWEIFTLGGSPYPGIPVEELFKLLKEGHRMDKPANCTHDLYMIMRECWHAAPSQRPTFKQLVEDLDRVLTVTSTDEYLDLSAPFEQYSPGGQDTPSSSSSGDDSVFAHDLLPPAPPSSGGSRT
T3 sequence (P21802 22-821): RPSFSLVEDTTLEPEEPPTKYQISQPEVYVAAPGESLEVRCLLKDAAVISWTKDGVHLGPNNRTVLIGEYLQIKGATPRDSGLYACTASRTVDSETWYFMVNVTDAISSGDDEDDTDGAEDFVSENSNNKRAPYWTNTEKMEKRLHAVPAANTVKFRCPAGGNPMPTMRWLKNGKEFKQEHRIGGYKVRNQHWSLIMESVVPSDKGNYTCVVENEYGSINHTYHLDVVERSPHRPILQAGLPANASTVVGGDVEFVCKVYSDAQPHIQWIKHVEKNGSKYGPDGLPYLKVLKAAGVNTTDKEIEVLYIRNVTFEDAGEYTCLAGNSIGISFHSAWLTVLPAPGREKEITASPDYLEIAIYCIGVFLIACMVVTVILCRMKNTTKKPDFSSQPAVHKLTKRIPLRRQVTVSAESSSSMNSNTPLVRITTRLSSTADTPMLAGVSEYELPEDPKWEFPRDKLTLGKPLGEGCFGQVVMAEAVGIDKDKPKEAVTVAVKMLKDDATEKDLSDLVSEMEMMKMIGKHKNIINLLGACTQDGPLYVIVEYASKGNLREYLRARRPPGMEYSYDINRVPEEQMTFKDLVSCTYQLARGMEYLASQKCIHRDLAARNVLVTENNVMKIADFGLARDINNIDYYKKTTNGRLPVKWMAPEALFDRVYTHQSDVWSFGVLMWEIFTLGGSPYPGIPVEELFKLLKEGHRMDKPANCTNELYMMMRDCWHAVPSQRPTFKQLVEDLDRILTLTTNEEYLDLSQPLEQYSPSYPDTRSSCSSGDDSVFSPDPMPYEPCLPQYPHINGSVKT
T4 sequence (P22607 23-806): as the sequence (P22607 23-806 V555M) above, with M533V counted along it
T2 sequence (P11362 22-822): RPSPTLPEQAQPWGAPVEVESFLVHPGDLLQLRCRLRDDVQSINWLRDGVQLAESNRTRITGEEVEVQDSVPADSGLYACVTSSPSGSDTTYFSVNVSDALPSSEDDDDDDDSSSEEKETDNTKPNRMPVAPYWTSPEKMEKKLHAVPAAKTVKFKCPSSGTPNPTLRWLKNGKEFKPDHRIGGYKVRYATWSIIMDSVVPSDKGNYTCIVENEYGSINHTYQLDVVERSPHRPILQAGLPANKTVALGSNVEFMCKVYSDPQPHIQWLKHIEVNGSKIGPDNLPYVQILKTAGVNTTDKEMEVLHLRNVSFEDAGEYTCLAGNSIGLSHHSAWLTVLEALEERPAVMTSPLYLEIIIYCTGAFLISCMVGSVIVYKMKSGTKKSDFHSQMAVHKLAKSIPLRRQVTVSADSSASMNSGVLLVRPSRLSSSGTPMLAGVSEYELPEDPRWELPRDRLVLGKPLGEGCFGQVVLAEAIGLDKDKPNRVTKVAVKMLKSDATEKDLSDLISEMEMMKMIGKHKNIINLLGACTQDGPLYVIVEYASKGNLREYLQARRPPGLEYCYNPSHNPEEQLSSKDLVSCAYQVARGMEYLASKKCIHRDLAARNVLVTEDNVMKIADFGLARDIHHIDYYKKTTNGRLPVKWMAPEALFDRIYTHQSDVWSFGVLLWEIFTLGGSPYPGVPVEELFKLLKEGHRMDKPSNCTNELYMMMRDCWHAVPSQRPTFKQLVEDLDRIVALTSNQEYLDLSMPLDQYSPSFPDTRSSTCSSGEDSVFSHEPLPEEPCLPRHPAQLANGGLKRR

| SMILES | Kd (FGFR3 (V555M)) [nM] | IC50 [1] [nM] | Kd (FGFR1) [nM] | Kd (FGFR2) [nM] | Kd (FGFR3) [nM] | IC50 [2] [nM] | IC50 [3] [nM] |
| --- | --- | --- | --- | --- | --- | --- | --- |
| C=CC(=O)Nc1ccc2c(ccn2-c2nc(Nc3ccc(N4CCN(C)CC4)cc3)ncc2Cl)c1 [Example 1, N-[1-[5-chloro-2-[4-(4-methylpiperazin-1-yl)anilino]pyrimidin-4-yl]indol-5-yl]prop-2-enamide] | 0.1 to 100 | 100 to 250 | 0.1 to 100 | 0.1 to 100 | 0.1 to 100 |  |  |
| C=CC(=O)Nc1cnc2c(c1)c(C)cn2-c1nc(Nc2ccnn2C)ncc1F [Example 80, N-[1-[5-fluoro-2-[(2-methylpyrazol-3-yl)amino]pyrimidin-4-yl]-3-methyl-pyrrolo[2,3-b]pyridin-5-yl]prop-2-enamide] | 0.1 to 100 |  | 0.1 to 100 | 0.1 to 100 | 0.1 to 100 |  | 0.1 to 100 |
| C=CC(=O)Nc1ccc2c(c1)c(C)cn2-c1nc(Nc2c(C)nn(C)c2C)ncc1Cl [Example 41, N-[1-[5-chloro-2-[(1,3,5-trimethylpyrazol-4-yl)amino]pyrimidin-4-yl]-3-methyl-indol-5-yl]prop-2-enamide] | 0.1 to 100 | 250 to 1000 | 100 to 250 | 0.1 to 100 | 0.1 to 100 |  |  |
| C=CC(=O)Nc1ccc2c(c1)c(C)cn2-c1nc(Nc2ccc(N3CCOCC3)cc2)ncc1C#N [Example 38, N-[1-[5-cyano-2-(4-morpholinoanilino)pyrimidin-4-yl]-3-methyl-indol-5-yl]prop-2-enamide] | 0.1 to 100 | 0.1 to 100 | 0.1 to 100 | 0.1 to 100 | 0.1 to 100 |  |  |
| C=CC(=O)Nc1ccc2c(c1)c(C)cn2-c1nc(Nc2cn(C)nc2C)ncc1C [Example 187, N-[1-[2-[(1,3-dimethylpyrazol-4-yl)amino]-5-methyl-pyrimidin-4-yl]-3-methyl-indol-5-yl]prop-2-enamide] | 0.1 to 100 | 0.1 to 100 | 0.1 to 100 | 0.1 to 100 | 0.1 to 100 | 0.1 to 100 |  |
| C=CC(=O)Nc1ccc2c(c1)c(C)cn2-c1nc(Nc2cc(C)[nH]n2)ncc1C [Example 123, N-[3-methyl-1-[5-methyl-2-[(5-methyl-1H-pyrazol-3-yl)amino]pyrimidin-4-yl]indol-5-yl]prop-2-enamide] | 0.1 to 100 |  | 0.1 to 100 | 0.1 to 100 | 0.1 to 100 | 0.1 to 100 |  |
| C=CC(=O)Nc1ccc2c(c1)c(C)cn2-c1nc(Nc2cnc(C)nc2C)ncc1F [Example 150, N-[1-[2-[(2,4-dimethylpyrimidin-5-yl)amino]-5-fluoro-pyrimidin-4-yl]-3-methyl-indol-5-yl]prop-2-enamide] | 100 to 250 |  | 250 to 1000 | 0.1 to 100 | 0.1 to 100 | 0.1 to 100 |  |
| C=CC(=O)Nc1ccc2c(c1)c(C)cn2-c1nc(Nc2ccn(CCO)n2)ncc1C [Example 100, N-[1-[2-[[1-(2-hydroxyethyl)pyrazol-3-yl]amino]-5-methyl-pyrimidin-4-yl]-3-methyl-indol-5-yl]prop-2-enamide] | 0.1 to 100 |  | 0.1 to 100 | 0.1 to 100 | 0.1 to 100 | 0.1 to 100 |  |
| C=CC(=O)Nc1ccc2c(c1)c(C)cn2-c1nc(Nc2cnn(CC(C)(C)O)c2C)ncc1F [Example 183, N-[1-[5-fluoro-2-[[1-(2-hydroxy-2-methyl-propyl)-5-methyl-pyrazol-4-yl]amino]pyrimidin-4-yl]-3-methyl-indol-5-yl]prop-2-enamide] | 0.1 to 100 |  | 0.1 to 100 | 0.1 to 100 | 0.1 to 100 | 0.1 to 100 |  |

Continued, values first:

| Kd (FGFR3 (V555M)) [nM] | IC50 [1] [nM] | Kd (FGFR1) [nM] | Kd (FGFR2) [nM] | Kd (FGFR3) [nM] | IC50 [2] [nM] | IC50 [3] [nM] | SMILES |
| --- | --- | --- | --- | --- | --- | --- | --- |
| 0.1 to 100 | 0.1 to 100 | 0.1 to 100 | 0.1 to 100 | 0.1 to 100 | 0.1 to 100 |  | C=CC(=O)Nc1ccc2c(c1)c(C)cn2-c1nc(Nc2cnn(C[C@@H](C)O)c2)ncc1F [Example 185, N-[1-[5-Fluoro-2-[[1-[(2R)-2-hydroxypropyl]pyrazol-4-yl]amino]pyrimidin-4-yl]-3-methyl-indol-5-yl]prop-2-enamide] |
| 0.1 to 100 |  | 0.1 to 100 | 0.1 to 100 | 0.1 to 100 | 0.1 to 100 | 0.1 to 100 | C=CC(=O)Nc1ccc2c(c1)c(C)cn2-c1nc(Nc2cnn(CCO)c2)ncc1Cl [Example 89, N-[1-[5-chloro-2-[[1-(2-hydroxyethyl)pyrazol-4-yl]amino]pyrimidin-4-yl]-3-methyl-indol-5-yl]prop-2-enamide] |
| 0.1 to 100 | 250 to 1000 | 100 to 250 | 0.1 to 100 | 0.1 to 100 |  |  | C=CC(=O)Nc1ccc2c(c1)c(C)cn2-c1nc(Nc2cn(C)nc2C#N)ncc1Cl [Example 70, N-[1-[5-chloro-2-[(3-cyano-1-methyl-pyrazol-4-yl)amino]pyrimidin-4-yl]-3-methyl-indol-5-yl]prop-2-enamide] |
| 0.1 to 100 |  | 0.1 to 100 | 0.1 to 100 | 0.1 to 100 | 0.1 to 100 | 0.1 to 100 | C=CC(=O)Nc1ccc2c(c1)c(C)cn2-c1nc(Nc2cnn(CCO)c2)ncc1F [Example 90, N-[1-[5-fluoro-2-[[1-(2-hydroxyethyl)pyrazol-4-yl]amino]pyrimidin-4-yl]-3-methyl-indol-5-yl]prop-2-enamide] |
| 250 to 1000 |  | > 1000 | > 1000 | 250 to 1000 |  | > 1000 | C=CC(=O)Nc1ccc2c(c1)c(C)nn2-c1nc(Nc2ccnn2C)ncc1C [Example 77, N-[3-methyl-1-[5-methyl-2-[(2-methylpyrazol-3-yl)amino]pyrimidin-4-yl]indazol-5-yl]prop-2-enamide] |
|  |  |  |  |  |  | 100 to 250 | C=CC(=O)Nc1ccc2c(-c3nc(Nc4cnc5ccnn5c4)ncc3Cl)cn(C)c2c1 [Example 43, N-[3-[5-chloro-2-(pyrazolo[1,5-a]pyrimidin-6-ylamino)pyrimidin-4-yl]-1-methyl-indol-6-yl]prop-2-enamide] |
| > 1000 |  | > 1000 | 250 to 1000 | 250 to 1000 |  | 250 to 1000 | C=CC(=O)Nc1ccc2c(c1)c(C)nn2-c1nc(Nc2ccnn2C)ncc1F [Example 76, N-[1-[5-fluoro-2-[(2-methylpyrazol-3-yl)amino]pyrimidin-4-yl]-3-methyl-indazol-5-yl]prop-2-enamide] |
| 0.1 to 100 | 100 to 250 | 0.1 to 100 | 0.1 to 100 | 0.1 to 100 |  |  | C=CC(=O)Nc1ccc2c(c1)c(C)cn2-c1nc(Nc2cnn(C)c2)ncc1C#N [Example 32, N-[1-[5-cyano-2-[(1-methylpyrazol-4-yl)amino]pyrimidin-4-yl]-3-methyl-indol-5-yl]prop-2-enamide] |
|  | 0.1 to 100 |  |  |  |  |  | C=CC(=O)Nc1ccc2c(-c3nc(Nc4ccc(N5CCN(C)CC5)cc4)ncc3Cl)cn(C)c2c1 [Example 50, N-[3-[5-chloro-2-[4-(4-methylpiperazin-1-yl)anilino]-pyrimidin-4-yl]-1-methyl-indol-6-yl]prop-2-enamide] |
| 0.1 to 100 |  | 0.1 to 100 | 0.1 to 100 | 0.1 to 100 |  | 0.1 to 100 | C=CC(=O)Nc1ccc2c(c1)c(C)cn2-c1nc(Nc2cnn3c2CCC3)ncc1F [Example 207, N-[1-[2-(5,6-dihydro-4H-pyrrolo[1,2-b]pyrazol-3-ylamino)-5-fluoro-pyrimidin-4-yl]-3-methyl-indol-5-yl]prop-2-enamide] |
| 0.1 to 100 |  | 250 to 1000 | 0.1 to 100 | 0.1 to 100 | 0.1 to 100 | 0.1 to 100 | C=CC(=O)Nc1ccc2c(-c3ccnc(Nc4cnn(C(F)(F)F)c4)n3)cn(C)c2c1 [Example 184, N-[1-methyl-3-[2-[[1-(trifluoromethyl)pyrazol-4-yl]amino]pyrimidin-4-yl]indol-6-yl]prop-2-enamide] |
| 0.1 to 100 |  | 0.1 to 100 | 0.1 to 100 | 0.1 to 100 | 0.1 to 100 |  | C=CC(=O)Nc1ccc2c(-c3ccnc(Nc4cnn(C)c4)n3)cn(C)c2c1 [Example 201, N-[3-[2-[(1-methylpyrazol-4-yl)amino]pyrimidin-4-yl]-1-methyl-indol-6-yl]prop-2-enamide] |
